These are literature values, as cited in patent US20150132345A1, “NITRIC OXIDE-SEQUESTERING TOPICAL FORMULATIONS” (priority 2011, published 2015).

Test systems include Staphylococcus aureus; Escherichia coli; Pseudomonas aeruginosa.
What all share (conditions): multiple 30 minutes treatments of 160 ppm nitric oxide

Structures are written as SMILES. Where only a bound is given, the exact number is not on record here.

As to `[N]=O` [nitric oxide], the “decrease in the bacterial load” value with Staphylococcus aureus, in the data set with Escherichia coli and in the data set on Pseudomonas aeruginosa was > 5 log 10 colony forming unit per milliliter (CFU/ml) each time.
